One data set concerns HIV-1. Kind of data set: HIV-1 single-round infectious luciferase reporter virus (pseudotype) assay in HeLa CD4 CCR5 cells. It is filed as cell-based. The gist of the method: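 Reporter pseudovirus produced in 293 cells infected HeLa cells expressing CD4/CCR5 at MOI ~0.01, with compound present at <10 μM final. Infection was quantified as luciferase luminescence after 72 h.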
A general note: Reporter assays use an easily measured gene product as a stand-in for the process of interest.

The next data set concerns HeLa cells. The experiment in a line: Cytotoxicity assay in HeLa cells (MTT dye reduction, CC50). Particulars: cytotoxicity; Yes = CC50 above 100 uM, No = not. How it is done: • Virus production—Human embryonic Kidney cell line, 293, propagated in Dulbecco's Modified Eagle Medium (Life Technologies, Gaithersburg, Md.) containing 10% fetal Bovine serum (FBS, Sigma, St. Louis, Mo.). • Virus infection—Human epithelial cell line, HeLa, expressing the HIV-1 receptors CD4 and CCR^5 was propagated in Dulbecco's Modified Eagle Medium (Life Technologies, Gaithersburg, Md.) containing 10% fetal Bovine serum (FBS, Sigma, St. Louis, Mo.) and supplemented with 0.2 mg/mL Geneticin (Life Technologies, Gaithersburg, Md.) and 0.4 mg/mL Zeocin (Invitrogen, Carlsbad, Calif.). […] Transfections were performed using lipofectAMINE PLUS reagent as described by the manufacturer (Life Technologies, Gaithersburg, Md.). Experiment • 1. Compound was added to HeLa CD4 CCR5 cells plated in 96 well plates at a cell density of 5×10^4 cells per well in 100 μl Dulbecco's Modified Eagle Medium containing 10% fetal Bovine serum at a concentration of […]. • 2. 100 μl of single-round infectious reporter virus in Dulbecco's Modified Eagle Medium was then added to the plated cells and compound at an approximate multiplicity of infection (MOI) of 0.01, resulting in a final volume of 200 μl per well and a final compound concentration of <10 μM. • 3. Samples were harvested 72 h after infection. • 4. Viral infection was monitored by measuring luciferase expression from viral DNA in the infected cells using a luciferase reporter gene assay kit (Roche Molecular Biochemicals, Indianapolis, Ind.). Infected cell supernatants were removed and 50 μl of Dulbecco's Modified Eagle Medium (without phenol red) and 50 μl of luciferase assay reagent reconstituted as described by the manufacturer (Roche Molecular Biochemicals, Indianapolis, Ind.) was added per well. Luciferase activity was then quantified by measuring luminescence using a Wallac microbeta scintillation counter. • 5. […] An EC50 provides a method for comparing the antiviral potency of the compounds of this invention. The effective concentration for fifty percent inhibition (EC50) was calculated with the Microsoft Excel Xlfit curve fitting software. For each compound, curves were generated from percent inhibition calculated at 10 different concentrations by using a four paramenter logistic model (model 205). Table 1 is the key for the data in Tables 2-4. Cytoxicity assays were conducted with the same HeLa using methodology well known in the art.
(§1) For accuracy, the determined measure of viral inhibition is an EC50; but the minimum plasma concentrations which should be maintained in a patient is generally believed to be at least four or five fold higher. […] Lower is better. • 4) Estimating potential exposure in man by measuring parameters such as AUC and rate of clearance by oral and iv dosing in rats. High exposure and low clearance was desired.

Data set [1] in a line: Metabolic stability in pooled human liver microsomes (HLM). Particulars: pooled human liver microsomes, 3 μM drug; Low/Intermediate/High. How it is done: Metabolic Stability Studies of compounds in Liver Microsomes. The metabolic stability of compounds were investigated in pooled liver microsomes from humans. The human liver microsomes were obtained from BD Gentest (Lot #16, Woburn, Mass.) with a protein concentration of 20 mg/ml and a total cytochrome P450 (CYP) concentration of 0.55 nmol/mg protein. A stock solution of drug was prepared in acetonitrile at 1 mM. […] The incubation media consisted of potassium phosphate buffer (0.1 M, pH 7.4), liver microsomes (final concentration 0.9 mg/ml), magnesium chloride (0.033 mM), and a NADPH-regenerating system. […] The test compound was pre-incubated in the media for 2 min. The reaction was initiated by the addition of the cofactors. The incubation was carried out at 37° C. for 10 min. The reaction was terminated by drawing an aliquot of 100 μL from the incubation and adding into 200 μL of acetonitrile containing a reference compound as an […] analytical standard. Following vortex-mixing and centrifugation, an aliquot of 10 μL of the supernatant was analyzed by LC/MS.
GUIDELINES can be used to categorized test substances as low, intermediate or highly cleared compounds.
as §1
The stability of compounds were also evaluated to determine metabolic stability when incubated in in vitro preparations of human liver microsomes (HLM). This is one commonly used predictive system for evaluating the potential for human metabolism and projecting clearance rates in man. Compounds with low clearance rates were most desireable.

Setting [2] is: Human immunodeficiency virus 1, HeLa-CD4/CCR5, read-out: EC50 Group from TABLE 1, HeLa CD4 CCR5 cells, single-round infectious luciferase reporter virus.
[3] abbreviates: Human immunodeficiency virus 1, HeLa-CD4/CCR5, read-out: EC50 category, HIV-1 single-round reporter virus assay, category 1/2/3 per Table A1 key.
[4] abbreviates: Human immunodeficiency virus 1, HeLa-CD4/CCR5, read-out: EC50 Group from Table 1, Table 4, HeLa CD4 CCR5 cells, single-round luciferase reporter virus.

SMILES strings stand for the structures. Where two headings read alike, the source gives them in different places.

Consider 18 compounds from US20050090522A1 (priority 2001, published 2005).

For `Cn1ccc(-c2ncc(F)c3c(C(=O)C(=O)N4CCN(C(=O)c5ccccc5)CC4)c[nH]c23)n1` [Example 29, 1-benzoyl-4-[(4-fluoro-7-(1-methyl-pyrazol-3-yl)-6-azaindol-3-yl)-oxoacetyl]piperazine], the figures for the concentration giving a half-maximal response (EC50) with HIV-1 (setting [2]) and in the data set with HIV-1 (setting [3]) were less than 1000 nM and 0.2 to 1000 nM, respectively. Also, the “CC50 > 100 uM” value in the data set with HeLa cells is listed as “No”. The “HLM predicted human clearance class” value in data set [1] is “High (0.201-0.300)”.
The corresponding values for `COc1cnc(-c2nccs2)c2[nH]cc(C(=O)C(=O)N3CCN(C(=O)c4ccccc4)CC3)c12` [Example 35, 1-(benzoyl)-4-[(4-methoxy-7-(thiazol-2-yl)-6-azaindol-3-yl)-oxoacetyl]piperazine] are less than 1000 nM, less than 0.2 nM, “Yes” and “Intermediate (0.101-0.200)”.
The corresponding values for `COc1cnc(-c2cc[nH]n2)c2[nH]cc(C(=O)C(=O)N3CCN(C(=O)c4ccccc4)CC3)c12` [Example 39, 1-benzoyl-4-[(4-methoxy-7-(pyrazol-3-yl)-6-azaindol-3-yl)-oxoacetyl]piperazine] are less than 1000 nM, 0.2 to 1000 nM, “No” and “Intermediate (0.101-0.200)”.
Turning to `O=C(C(=O)N1CCN(C(=O)c2ccccc2)CC1)c1c[nH]c2c(-c3cncnc3)ncc(F)c12` [Example 42, 1-benzoyl-4-[(4-fluoro-7-(pydin-5-yl)-6-azaindol-3-yl)-oxoacetyl]piperazine], the EC50 (commonly the concentration that produces a half-maximal response) in the data set with HIV-1 (setting [2]) was less than 1000 nM; in the data set with HIV-1 (setting [3]), 0.2 to 1000 nM. Moreover, in the data set with HeLa cells, the “CC50 > 100 uM” value was “Yes”. In addition, the “HLM predicted human clearance class” value in data set [1] was “Low (0-0.100)”.
Turning to `COc1cnc(-c2cncs2)c2[nH]cc(C(=O)C(=O)N3CCN(C(=O)c4ccccc4)CC3)c12` [Example 71, 1-benzoyl-4-[(4-methoxy-7-(thioazol-5-yl)-6-azaindol-3-yl)-oxoacetyl]piperazine], the EC50 with HIV-1 (setting [2]) is less than 1000 nM; in the data set with HIV-1 (setting [3]), less than 0.2 nM. Moreover, the “CC50 > 100 uM” value with HeLa cells is reported as “Yes”. The “HLM predicted human clearance class” value in data set [1] is listed as “Intermediate (0.101-0.200)”.
`COc1cnc(-c2ccco2)c2[nH]cc(C(=O)C(=O)N3CCN(C(=O)c4ccccc4)CC3)c12` [Example 73, 1-(benzoyl)-4-[(4-methoxy-7-(furan-2-yl)-6-azaindol-3-yl)-oxoacetyl]piperazine]: the EC50 in the data set with HIV-1 (setting [2]) is less than 1000 nM; in the data set with HIV-1 (setting [3]), less than 0.2 nM. Further, the “CC50 > 100 uM” value in the data set with HeLa cells is recorded as “Yes”. Besides, the “HLM predicted human clearance class” value in data set [1] is “Intermediate (0.101-0.200)”.
The corresponding values for `COc1cnc(-c2ncco2)c2[nH]cc(C(=O)C(=O)N3CCN(C(=O)c4ccccc4)CC3)c12` [Example 74, 1-benzoyl-4-[(4-methoxy-7-(oxazol-2-yl)-6-azaindol-3-yl)-oxoacetyl]piperazine] are less than 1000 nM, 0.2 to 1000 nM, “No” and “Intermediate (0.101-0.200)”.
As for `COc1cnc(-c2cnc(NC(C)=O)s2)c2[nH]cc(C(=O)C(=O)N3CCN(C(=O)c4ccccc4)CC3)c12` [Example 78, 1-benzoyl-4-[(4-methoxy-7-(2-acetylamino-thiazol-5-yl)-6-azaindol-3-yl)-oxoacetyl]piperazine], the results for the 50% effective concentration (EC50) with HIV-1 (setting [2]) and in the data set on HIV-1 (setting [3]) were less than 1000 nM and 0.2 to 1000 nM, respectively. In the data set on HeLa cells, the “CC50 > 100 uM” value is on record as “Yes”. In addition, the “HLM predicted human clearance class” value in data set [1] was “Intermediate (0.101-0.200)”.
`O=C(C(=O)N1CCN(C(=O)c2ccccc2)CC1)c1c[nH]c2c(-c3cnccn3)ncc(F)c12` [Example 95, 1-benzoyl-4-[(4-fluoro-7-(pyrazin-2-yl)-6-azaindol-3-yl)-oxoacetyl]piperazine]: the figures for the EC50 in the data set on HIV-1 (setting [2]) and in the data set on HIV-1 (setting [3]) were less than 1000 nM and less than 0.2 nM, respectively. Besides, in data set [1], the “HLM predicted human clearance class” value is “Intermediate (0.101-0.200)”.
Turning to `C[C@@H]1CN(C(=O)c2ccccc2)CCN1C(=O)C(=O)c1c[nH]c2c(-n3cccn3)ncc(Br)c12` [Example 139], the values for the EC50 with HIV-1 (setting [2]) and in the data set on HIV-1 (setting [3]) were less than 1000 nM and 0.2 to 1000 nM, respectively. Further, the “CC50 > 100 uM” value with HeLa cells is “Yes”. Also, the “HLM predicted human clearance class” value in data set [1] was “High (0.201-0.300)”.
For `O=C(C(=O)N1CCN(C(=O)c2ccccc2)CC1)c1c[nH]c2c(-c3ncco3)ncc(F)c12` [Example 140], in that order: less than 1000 nM, 0.2 to 1000 nM, “Yes” and “Intermediate (0.101-0.200)”.
The corresponding values for `O=C(C(=O)N1CCN(C(=O)c2ccccc2)CC1)c1c[nH]c2c(-c3ncon3)ncc(F)c12` [Example 146] are less than 1000 nM, 0.2 to 1000 nM, “Yes” and “Intermediate (0.101-0.200)”.
Regarding `O=C(C(=O)N1CCN(C(=O)c2ccccc2)CC1)c1c[nH]c2c(-c3cn(-c4ccccc4)nn3)ccnc12` [Example 161], the EC50 is less than 1000 nM with HIV-1 (setting [4]) and less than 0.2 nM in the data set on HIV-1 (setting [3]). Moreover, the “CC50 > 100 uM” value in the data set on HeLa cells is given as “Yes”. In addition, the “HLM predicted human clearance class” value in data set [1] is “High (0.201-0.300)”.
For `O=C(C(=O)N1CCN(C(=O)c2ccccc2)CC1)c1c[nH]c2c(-n3cncn3)ccnc12` [Example 207, 1-(4-benzoyl-piperazin-1-yl)-2-(7-[1,2,4]triazol-1-yl-1H-pyrrolo[3,2-b]pyridin-3-yl)-ethane-1,2-dione], in that order: less than 1000 nM, 0.2 to 1000 nM, “Yes” and “Low (0-0.100)”.
For `CNC(=O)c1cc(-c2ncc(F)c3c(C(=O)C(=O)N4CCN(C(=O)c5ccccc5)CC4)c[nH]c23)n[nH]1` [Example 211], the figures for the EC50 in the data set with HIV-1 (setting [2]) and in the data set on HIV-1 (setting [3]) were less than 1000 nM and less than 0.2 nM, respectively. For the same compound, the “HLM predicted human clearance class” value in data set [1] is “Intermediate (0.101-0.200)”.
The corresponding values for `CN(C)C(=O)c1cc(-c2ncc(F)c3c(C(=O)C(=O)N4CCN(C(=O)c5ccccc5)CC4)c[nH]c23)n[nH]1` [Example 212] are less than 1000 nM, less than 0.2 nM and “Low (0-0.100)”.
`O=C(C(=O)N1CCN(C(=O)c2ccccc2)CC1)c1c[nH]c2c(N3CCCC3)ncc(F)c12` [Example 221]: the half-maximal effective concentration (EC50) with HIV-1 (setting [2]) is less than 1000 nM; with HIV-1 (setting [3]), 0.2 to 1000 nM. The “CC50 > 100 uM” value in the data set with HeLa cells is “Yes”. Besides, the “HLM predicted human clearance class” value in data set [1] is given as “Low (0-0.100)”.
For `O=C(C(=O)N1CCN(C(=O)c2ccccc2)CC1)c1c[nH]c2c(N3CCOCC3)ncc(F)c12` [Example 222], in that order: less than 1000 nM, 0.2 to 1000 nM, “Yes” and “Low (0-0.100)”.
